# Laboratory results taken from patent US5639887A, “MDR reversal agents” (priority 1995, dated 1997).
# Assays:
# [1] = tested on: human epidermoid carcinoma KB/8.5; test: In vivo evaluation of MDR-1 reversal agents against human epidermoid carcinoma KB/8.5 implanted SC in athymic nude mice; set-up: species or system human (tumor in athymic nude mice)
# Description: The multiple drug resistant human epidermoid carcinoma KB/8.5 is propagated in medium containing colchicine (10 nanograms/ml) to maintain drug resistance. Colchicine is removed from the medium, for two cell passages, prior to subcutaneous (SC) implant of 8×10^6 KB/8.5 tumor cells into athymic "nude" mice (Harlan Sprague Dawley). […] Individual mouse tumor mass and mean tumor mass for each treatment group is determined on Day +14 and Day +21 of the test period. For each treatment group, the Relative Tumor Growth, RTG, is calculated as follows: [formula]
# Statistical analysis of Log Relative Tumor Growth is carried out using the Student t-test. Transformation of the data from absolute mean tumor mass (mgs tumor mass) to Log Relative Tumor Growth prior to statistical analysis has two beneficial effects:
# 1) it corrects the data for differences in mean tumor mass of the different treatment groups at the start of the test period (Day 0); and
# 2) the Log transformation of the data more adequately reflects the exponential growth pattern of the SC tumors and makes the use of the Student t-test more appropriate.
# [2] = tested on: vincristine resistant murine leukemia P388/VCR; test: In vivo evaluation of MDR-1 reversal agents against vincristine resistant murine leukemia P388/VCR implanted IP in CDF1 mice; conditions: for % ILS: vs vincristine alone
# Description: Tumor cell ascites are harvested 5-7 days later. For drug testing, groups of 10-15 CDF1 mice (DBA/2×Balb/cF1 hybrids; Charles River Laboratories, Inc) are injected IP with 0.5 ml of diluted ascitic fluid containing 1×10^6 viable P388/VCR tumor cells. […] Drugs are administered once daily, by the IP, intravenous (IV) or oral route, starting one day after tumor implantation and using a variety of treatment schedules. Mice are weighed periodically, survival is recorded for 30 days post tumor implantation, and Mean survival times are calculated for all groups of mice. Statistical analysis of Mean survival times is carried out using the Student t-test.
# [3] = vincristine 0.2 + compound 75 mg/kg, days 1-7, IP
# [4] = vincristine 0.2 + compound 100 mg/kg, days 1-7, ORAL
# [5] = vincristine 0.2 + compound 200 mg/kg, days 1-7, ORAL
# [6] = vincristine 0.4 + compound 25.0 mg/kg, days 1-3, IP
# [7] = vincristine 0.4 + compound 50.0 mg/kg, days 1-3, IP
# [8] = vincristine 0.2 + compound 25 mg/kg, days 1-7, IP
# [9] = vincristine 0.2 + compound 50 mg/kg, days 1-7, IP
# [10] = doxorubicin 8 mg/kg IV + compound 75 mg/kg/dose SC at -2 h and +2 h
# [11] = doxorubicin 8 mg/kg IV + compound 200 mg/kg/dose SC at -2 h and +2 h
# [12] = vincristine 0.2 + compound 6.3 mg/kg, days 1-7, IP
# [13] = doxorubicin 8 mg/kg IV + compound 150 mg/kg/dose SC at -2 h and +2 h
# [14] = vincristine 0.2 + compound 25 mg/kg, days 1-5, IP
# [15] = vincristine 0.2 + compound 50 mg/kg, days 1-5, IP
# [16] = vincristine 0.4 + compound 25 mg/kg, days 1-3,6,7, IV
# [17] = vincristine 0.4 + compound 50 mg/kg, days 1-3,6,7, IV
# [18] = vincristine 0.6 + compound 6.3 mg/kg, days 1,5,9, IP
# [19] = vincristine 0.6 + compound 25 mg/kg, days 1,2, IV
# [20] = vincristine 0.6 + compound 25 mg/kg, days 1,5,9, IP
# [21] = vincristine 0.6 + compound 50 mg/kg, days 1,2, IV
# [22] = vincristine 0.8 + compound 25 mg/kg, days 1,2, IV
structure (smiles),measurement,setting,value
"COc1ccc(C(C#N)(CCCN2CCc3cc(OC)c(OC)cc3C2)Sc2ccc(C)cc2)cc1OC (stereo not drawn) [Example 3, α-(3,4-Dimethoxyphenyl)-3,4-dihydro-6,7-dimethoxy-α-[(4-methylphenyl)thio]-2(1H)-isoquinolinepentanenitrile]",Relative Tumor Growth Day 21,[1]; doxorubicin 8 mg/kg IV + compound 50 mg/kg/dose SC at -2 h and +2 h,8.38
same,Relative Tumor Growth Day 21,[1]; doxorubicin 8 mg/kg IV + compound 100 mg/kg/dose SC at -2 h and +2 h,8.87
same,MST,[2]; [3],16.7 days
same,MST,[2]; [4],15.8 days
same,MST,[2]; [5],16.4 days
same,MST,[2]; [6],15.6 days
same,MST,[2]; [7],16.3 days
same,% ILS,[2]; [3],+21%
same,% ILS,[2]; [4],+15%
same,% ILS,[2]; [5],+20%
same,% ILS,[2]; [6],+10%
same,% ILS,[2]; [7],+15%
"COC(=O)C(CCCN1CCc2cc(OC)c(OC)cc2C1)(Sc1ccc(C)cc1)c1ccc(OC)c(OC)c1 (stereo not drawn) [Example 12, α-(3,4-Dimethoxyphenyl)-3,4-dihydro-6,7-dimethoxy-α-[(4-methylphenyl)thio]-2(1H)-isoquinolinepentanoic acid methyl ester]",MST,[2]; [8],16.5 days
same,MST,[2]; [9],16.7 days
same,% ILS,[2]; [8],+9%
same,% ILS,[2]; [9],+11%
"COc1ccc(C(C#N)(CCCCCCCCCCCN2CCc3cc(OC)c(OC)cc3C2)Sc2ccc(C)cc2)cc1OC (stereo not drawn) [Example 14, α-(3,4-Dimethoxyphenyl)-3,4-dihydro-6,7-dimethoxy α-[(4-methylphenyl)thio]-2(1H)-isoquinoline tridecanenitrile]",Relative Tumor Growth Day 21,[1]; [10],5.86
same,Relative Tumor Growth Day 21,[1]; [11],7.84
same,MST,[2]; [12],14.3 days
same,% ILS,[2]; [12],+14%
"COc1ccc(C(C#N)(CCCCCN2CCc3ccccc3C2)Sc2ccc(C)cc2)cc1OC (stereo not drawn) [Example 16, α-(3,4-Dimethoxyphenyl)-3,4-dihydro-α-[(4-methylphenyl)thio]-2(1H)-isoquinoline-2-heptanenitrile]",MST,[2]; [8],16.8 days
same,% ILS,[2]; [8],+11%
"COc1ccc(C(C#N)(CCCCCN2CCc3cc(OC)c(OC)cc3C2)Sc2ccc(C)cc2)cc1OC (stereo not drawn) [Example 17, α-(3,4-Dimethoxyphenyl)-3,4-dihydro-6,7-dimethoxy-α-[(4-methylphenyl)thio]-2(1H)-isoquinolineheptanenitrile]",Relative Tumor Growth Day 21,[1]; doxorubicin 8 mg/kg IV + compound 25 mg/kg/dose SC at -2 h and +2 h,9.55
same,Relative Tumor Growth Day 21,[1]; [13],3.35
same,Relative Tumor Growth Day 21,[1]; [11],5.30
same,Relative Tumor Growth Day 21,[1]; doxorubicin 8 mg/kg IV + compound […] SC at -2 h and +2 h,8.58
same,MST,[2]; [14],16.8 days
same,MST,[2]; [15],16.1 days
same,MST,[2]; [16],13.3 days
same,MST,[2]; [17],13.4 days
same,MST,[2]; [18],12.9 days
same,MST,[2]; [19],10.1 days
same,MST,[2]; [20],15.8 days
same,MST,[2]; [21],11.1 days
same,MST,[2]; [22],11.1 days
same,% ILS,[2]; [14],+22%
same,% ILS,[2]; [15],+17%
same,% ILS,[2]; [16],+17%
same,% ILS,[2]; [17],+18%
same,% ILS,[2]; [18],+12%
same,% ILS,[2]; [19],+5%
same,% ILS,[2]; [20],+38%
same,% ILS,[2]; [21],+16%
same,% ILS,[2]; [22],+13%
"COc1ccc(C(C#N)(CCCCCCCCN2CCc3cc(OC)c(OC)cc3C2)Sc2ccc(C)cc2)cc1OC (stereo not drawn) [Example 20, α-(3,4-Dimethoxyphenyl]-3,4-dihydro-6,7-dimethoxy-α-[(4-methylphenyl)thio]-2(1H)-isoquinolinedecanenitrile]",MST,[2]; [12],13.5 days
same,% ILS,[2]; [12],+8%
COc1ccc(C(C#N)(CCCCCN2CCc3cc4c(cc3C2)OCO4)Sc2ccc(C)cc2)cc1OC (centres unmarked) [Example 21],MST,[2]; [8],14.5 days
same,% ILS,[2]; [8],+16%
COc1ccc2c(c1)CCN(CCCCCC(C#N)(Sc1ccc(C)cc1)c1ccc(OC)c(OC)c1)C2 (centres unmarked) [Example 22],MST,[2]; [12],15.2 days
same,% ILS,[2]; [12],+20%
"COc1ccc(C(C#N)(CCCCCN2Cc3cc(OC)c(OC)cc3C2)Sc2ccc(C)cc2)cc1OC (stereo not drawn) [Example 26, α-(3,4-Dimethoxyphenyl)-1,3-dihydro-5,6-dimethoxy-α-[(4-methylphenyl)thio]-2H-isoindole-2-heptanenitrile]",Relative Tumor Growth Day 21,[1]; [10],3.49
same,Relative Tumor Growth Day 14,[1]; [13],Toxic
same,Relative Tumor Growth Day 21,[1]; [13],Toxic
same,Relative Tumor Growth Day 14,[1]; [11],Toxic
same,Relative Tumor Growth Day 21,[1]; [11],Toxic
same,MST,[2]; [12],13.8 days
same,MST,[2]; [8],15.8 days
same,% ILS,[2]; [12],+23%
same,% ILS,[2]; [8],+41%
"COc1ccc(C(C#N)(CCCCCN2CCc3cc(OC)c(OCCn4ccnc4)cc3C2)Sc2ccc(C)cc2)cc1OC (stereo not drawn) [Example 33, α-(3,4-Dimethoxyphenyl)-3,4-dihydro-7-[2-(1H-imidazol-1-yl)ethoxy]-6-methoxy-α-[(4-methylphenyl)thio]-2(1H)-isoquinolineheptanenitrile]",MST,[2]; [8],15.6 days
same,MST,[2]; [9],16.6 days
same,% ILS,[2]; [8],+39%
same,% ILS,[2]; [9],+48%
"COc1ccc(C(C#N)(CCCCCCN2CCc3cc(OC)c(OC)cc3C2)Sc2ccc(C)cc2)cc1OC (stereo not drawn) [Example 37, α-(3.4-Dimethoxyphenyl)-3,4-dihydro-6,7-dimethoxy-α-[(4-methylphenyl)thio]-2(1H)-isoqutnolineoctanenitrile]",MST,[2]; [8],14.7 days
same,% ILS,[2]; [8],+17%
"COc1cc2c(cc1OC)CN(CCCCCCC(Sc1ccccc1)c1ccccc1)CC2 (centres unmarked) [Example 112, 1,2,3,4-Tetrahydro-6,7-dimethoxy-2-[7-phenyl-7-(phenylthio]heptyl]isoquinoline]",MST,[2]; [8],16.3 days
same,MST,[2]; [9],14.2 days
same,% ILS,[2]; [8],+45%
same,% ILS,[2]; [9],+26%
"CC[C@]1(O)C[C@H]2CN(CCc3c([nH]c4ccccc34)[C@@](C(=O)OC)(c3cc4c(cc3OC)N(C=O)[C@H]3[C@@](O)(C(=O)OC)[C@H](OC(C)=O)[C@]5(CC)C=CCN6CC[C@]43[C@@H]65)C2)C1 [Vincristine, reference compound]",MST,"[2]; vincristine alone 0.6 mg/kg, days 1,2, IV",9.6 days
same,MST,"[2]; vincristine alone 0.8 mg/kg, days 1,2, IV",9.8 days
